The numbers were not newly measured in patent publication US10105372B2, “Methods of treating obesity using antioxidant inflammation modulators” (REATA PHARMACEUTICALS, INC., priority 2010, dated 2018), which cites them from elsewhere.

For this data set the following is noted: monkey, in vivo, po; cited from earlier work.

Consider `COC(=O)[C@]12CCC(C)(C)C[C@H]1[C@H]1C(=O)C=C3[C@@]4(C)C=C(C#N)C(=O)C(C)(C)[C@@H]4CC[C@@]3(C)[C@]1(C)CC2` [Form B, CDDO-Me], for which the bioavailability result is “higher than that of Form A”.
